From PMC9230797, “Integration of a Physiologically Based Pharmacokinetic and Pharmacodynamic Model for Tegoprazan and Its Metabolite: Application for Predicting Food Effect and Intragastric pH Alterations” (Pharmaceutics, 2022)
Where “and” joins values, the source holds several entries; their conditions need not be identical. Identical values can stand only once. Like-named read-outs stand apart in the source and are kept apart here.

Tests used:
[1] = Microsomal metabolic stability in human liver microsomes; format: in vitro ADME
Protocol: The NADPH-generating system, glucose 6-phosphate (3.3 mM), 0.1 M potassium phosphate (pH 7.4), and human liver microsomes (HLMs; 0.5 mg/mL) were combined and incubated at 37 °C for 5 min. The organic content in the reaction mixture was 0.01% DMSO and less than 1% acetonitrile. Then, 1 μM tegoprazan and M1 were added to the reaction tube (total volume: 160 μL) and incubated at 37 °C for 0, 5, 15, 30, and 60 min. To terminate the reaction, 320 μL of acetonitrile containing an internal standard (100 ng/mL carbamazepine) was added to each sample. All experiments were performed in triplicate. The samples were vortexed for 5 min and centrifuged at 3000 rpm at 4 °C for 10 min. The concentrations of tegoprazan and M1 were determined by liquid chromatography–tandem mass spectrometry (LC–MS/MS). The concentrations of tegoprazan and M1 at 0 min were used to assess metabolism by HLMs based on changes in drug concentration over time. The terminal slope of linear regression was used to calculate the intrinsic clearance (CLint) of tegoprazan and M1. For the in vitro HLM system, CLint was calculated using Equation (1). CLint,mic (μL/min/mg protein) = k × Vincubation/Cincubation(1) where Vincubation is the incubation volume and Cincubation is the concentration of the microsomal protein.

intragastric pH = test system: intragastric pH; parameters: method as in PMID 31437865; details: Observed (n = 6), cited from earlier work
[2] = Caco-2 permeability assay; format: in vitro ADME; details: human
Protocol: (§1) Caco-2 cells were cultured in DMEM supplemented with 20% FBS, 1% non-essential amino acids, and 1% penicillin-streptomycin. Caco-2 cells were seeded onto collagen-coated 12-Transwell membranes at a density of 5 × 10^5 cells/mL and incubated under optimal conditions (maintained at 37 °C in a humidified atmosphere with 5% CO2/95% air) for 21 days. The culture medium was replaced every second day. For the experiments, after the growth medium was removed, the attached cells were washed with pre-warmed HBSS (pH 7.4) and pre-incubated with HBSS for 20 min at 37 °C. The integrity of the cell monolayers was evaluated before and after the permeability experiments by measuring transepithelial electrical resistance (TEER) values using an epithelial volt/ohm meter (World Precision Instruments, Sarasota, FL, USA). Caco-2 cells with TEER values higher than 300 Ω∙cm^2 were used for permeability experiments, and alterations in TEER values were less than 10% in all cases (i.e., 417.3 ± 6.3 Ω∙cm^2 and 400.8 ± 3.5 Ω∙cm^2, before and after the permeability experiments, respectively).
(§2) To determine the apical to basal (A to B) permeability of tegoprazan, 0.5 mL of HBSS containing 10 µM tegoprazan and 1.5 mL of fresh HBSS were added to the apical and basal side of the insert, respectively. The insert was transferred to a new well that contained 1.5 mL of fresh HBSS every 15 min, for 1 h. Aliquots (0.3 mL) on the basal side were transferred to fresh tubes and stored at −80 °C until further analysis. To investigate B-to-A permeability, 1.5 mL of HBSS containing 10 µM tegoprazan and 0.5 mL of fresh HBSS were added to the basal and apical sides of the insert, respectively. Aliquots (0.3 mL) on the apical side were transferred to fresh tubes, and 0.3 mL of pre-warmed fresh HBSS was replaced every 15 min for 1 h. The transport study was performed for 1 h based on the linearity of the cumulative transported tegoprazan amount versus transport time. The cumulative transported amount was calculated as the sum of transported amounts for 0–15 min, 15–30 min, 30–45 min, and 45–60 min, and the transport rate of tegoprazan was the slope of the regression line derived from the cumulative transported amount versus time plot. The apparent permeability (Papp) was calculated from the following Equation (2):(2) Papp(10^−6cm/s)=transport rate (nmol/min)/concentration (μM)× area(cm^2)×60 s
(§3) Caco-2 and rCYP samples were quantified using LC-MS/MS (UPLC® I-class coupled with TQ-MS (Waters, Milford, MA, USA). The mobile phase comprised (a) 0.1% formic acid and (b) acetonitrile containing 0.1% formic acid. Gradient elution at a flow rate of 0.3 mL/min was applied. Tegoprazan, M1, and the internal standard (tegoprazan-d6) were optimized in electrospray ionization positive mode. Acetonitrile with 0.1 μM of tegoprazan-d6 was added to the collected Caco-2 or rCYP samples. Then, processed samples were centrifuged at 13,000× g for 20 min. After centrifugation, 100 μL of supernatant was transferred to an LC-MS vial and analyzed using LC-MS/MS. The analytical method was validated based on the Bioanalytical Method Validation Guidance for Industry published by the US Food and Drug Administration and the Guideline on Bioanalytical Method Validation published by the Korean Ministry of Food and Drug Safety (MFDS). Linearity was in the range of 0.1–20 µM, and the inter-batch accuracy and precision were in the ranges of 91.8–101.3% and 2.3–8.9%, respectively. The stability of tegoprazan was evaluated, and it satisfied the acceptance criteria (coefficient of variances was within 15%) under variable conditions including reinjection, processed sample stability (PSS), and short-term stability for the stock and sample.

Caco-2 cells = assay: Caco-2 permeability assay; format: in vitro ADME; details: pH 7.4/7.4, 10 µM; for Papp / Transport Rate: single replicates; for Recovery: single replicates A-C
Protocol: as §1, §2, §3

Cc1nc2cc(C(=O)N(C)C)cc(O[C@H]3CCOc4cc(F)cc(F)c43)c2[nH]1 [tegoprazan]
HLM intrinsic clearance (CLint,HLM) ([1]; 1 μM, HLM 0.5 mg/mL with NADPH, experimental data): 15.96 μL/min/mg protein | percentage remaining after incubation ([1]; control sample without NADPH): 99.54% ± 5.32 | microsomal CLint at 1 μM ([1]; human, human liver microsomes, pH 7.4, 1 μM, HLM 0.5 mg/mL with NADPH, experimental data, read-out: HLM intrinsic clearance (CLint,HLM)): 16 µL/min/mg | pH ≥ 4 over 24 h (intragastric pH; 50 mg Single): 48.9% | pH ≥ 4 over 24 h (intragastric pH; 100 mg q.d. for 7 Days, Day 1): 62.3% | pH ≥ 4 over 24 h (intragastric pH; 100 mg q.d. for 7 Days, Day 7): 70.4% | Papp at 1 h, 10 µM ([2]; Caco-2, pH 7.4, A to B, pH 7.4/7.4, 10 µM, read-out: Papp, Mean): 12.5 ×10⁻⁶ cm/s | recovery at 1 h, 10 µM ([2]; Caco-2, pH 7.4, A to B, pH 7.4/7.4, 10 µM, read-out: Recovery, Mean): 84.5% | recovery at 1 h, 10 µM ([2]; Caco-2, pH 7.4, A to B, pH 7.4/7.4, 10 µM, single replicates A-C, read-out: Recovery): 82.7% | Papp at 1 h, 10 µM ([2]; Caco-2, pH 7.4, A to B, pH 7.4/7.4, 10 µM, single replicates, read-out: Papp): 13.4 ×10⁻⁶ cm/s | Papp at 1 h, 10 µM ([2]; Caco-2, pH 7.4, B to A, pH 7.4/7.4, 10 µM, read-out: Papp, Mean): 11.7 ×10⁻⁶ cm/s | recovery at 1 h, 10 µM ([2]; Caco-2, pH 7.4, B to A, pH 7.4/7.4, 10 µM, read-out: Recovery, Mean): 84.3% | recovery at 1 h, 10 µM ([2]; Caco-2, pH 7.4, B to A, pH 7.4/7.4, 10 µM, single replicates A-C, read-out: Recovery): 85.9% | Papp at 1 h, 10 µM ([2]; Caco-2, pH 7.4, B to A, pH 7.4/7.4, 10 µM, single replicates, read-out: Papp): 11.4 ×10⁻⁶ cm/s | Papp at 1 h, 10 µM ([2]; Caco-2, pH 7.4, initial model value (experimental), read-out: Papp,caco-2): 12.5 ×10⁻⁶ cm/s | Papp (Caco-2 cells; A to B): 11.01 ×10⁻⁶ cm/s and 13.23 ×10⁻⁶ cm/s | Transport Rate (Caco-2 cells; A to B): 0.56 nmol/h and 0.48 nmol/h | Recovery (Caco-2 cells; A to B): 86.4% | Papp (Caco-2 cells; B to A): 10.36 ×10⁻⁶ cm/s and 13.36 ×10⁻⁶ cm/s | Transport Rate (Caco-2 cells; B to A): 0.49 nmol/h and 0.46 nmol/h and 0.53 nmol/h | Recovery (Caco-2 cells; B to A): 88.7% and 78.3%
